Values of other authors as cited in patent US4127538A, “Novel pentacosapeptides, intermediates therefor and pharmaceutical compositions and methods employing said pentacosapeptides” (priority 1977, dated 1978).

Legend:
[1] = test system: partially purified brain opiate receptor sites
[2] = injected directly into the brain of the rat

H-Tyr-Gly-Gly-Phe-Met-OH [methionine enkephalin]
binding to partially purified brain opiate receptor sites [1]: binds stereo-specifically | analgesic effect [2]: weak analgesic agent of short duration
